Measured values from patent US10202361B2, “Pyridazinones as herbicides” (E I DU PONT DE NEMOURS AND COMPANY, priority 2014, dated 2019).

Columns and labels:
Assay type in all cases: in vivo
[1] = tested on: windgrass (Apera spica-venti); assay: Test C postemergence greenhouse herbicide test
[2] = tested on: deadnettle (henbit deadnettle, Lamium amplexicaule); assay: Test C postemergence greenhouse herbicide test
[3] = tested on: canarygrass (Phalaris minor); assay: Test C postemergence greenhouse herbicide test
[4] = tested on: barley (winter barley, Hordeum vulgare); assay: Test C postemergence greenhouse herbicide test
[5] = tested on: sunflower (common oilseed sunflower, Helianthus annuus); assay: Test C pre-/postemergence greenhouse herbicide test; conditions: Preemergence
Procedure, shortened: (§1)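 Visual ratings, 0 = no effect, 100 = complete control, vs untreated controls at 13–15 d. Pre: seeds in loam/sand. Post: 2–18 cm plants (1–4 leaf), peat/vermiculite mix. Surfactant-containing solvent formulation; greenhouse.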

[6] = tested on: nightshade (eastern black nightshade, Solanum ptycanthum); assay: as above; conditions: Preemergence
Procedure, shortened: as §1

[7] = tested on: cupgrass, woolly (woolly cupgrass, Eriochloa villosa); assay: as above
Procedure, shortened: as §1

[8] = tested on: Russian thistle (Salsola kali); assay: as above; conditions: Preemergence
Procedure, shortened: as §1

[9] = tested on: goosegrass (Eleusine indica); assay: as above
Procedure, shortened: as §1

[10] = tested on: bromegrass, downy (downy bromegrass, Bromus tectorum); assay: as above
Procedure, shortened: as §1

[11] = tested on: cocklebur (common cocklebur, Xanthium strumarium); assay: as above
Procedure, shortened: as §1

[12] = tested on: bermudagrass (Cynodon dactylon); assay: as above
Procedure, shortened: as §1

[13] = tested on: surinam grass (Brachiaria decumbens); assay: as above
Procedure, shortened: as §1

[14] = tested on: foxtail, green (green foxtail, Setaria viridis); assay: as above
Procedure, shortened: as §1

For `Cc1cc(=O)n(-c2ccc(F)cc2)nc1Oc1ccnc(C(F)(F)F)c1` [Compound 14, 2-(4-fluorophenyl)-5-methyl-6-[[2-(trifluoromethyl)-4-pyridinyl]oxy]-3 (2H)-pyridazinone], the Plant response rating ([1]; 31 g ai/ha) was 20, the Plant response rating ([1]; 62 g ai/ha) was 20 and the Plant response rating ([1]; 125 g ai/ha) was 25. The Plant response rating ([1]; 250 g ai/ha) was 30, the Plant response rating ([2]; 31 g ai/ha) was 85 and the Plant response rating ([2]; 62 g ai/ha) was 85. It also gave a Plant response rating ([2]; 125 g ai/ha) of 85, a Plant response rating ([2]; 250 g ai/ha) of 85 and a Plant response rating ([3]; 31 g ai/ha) of 5. For the same compound, the Plant response rating ([3]; 62 g ai/ha) was 5, the Plant response rating ([3]; 125 g ai/ha) was 10 and the Plant response rating ([3]; 250 g ai/ha) was 15. It also gave a Plant response rating ([4]; 31 g ai/ha) of 5, a Plant response rating ([4]; 62 g ai/ha) of 5 and a Plant response rating ([4]; 125 g ai/ha) of 10. It also gave a Plant response rating ([4]; 250 g ai/ha) of 25, a Plant response rating ([5]; 62 g ai/ha) of 5 and a Plant response rating ([5]; 125 g ai/ha) of 5. It also gave a Plant response rating ([5]; 250 g ai/ha) of 10, a Plant response rating ([6]; 31 g ai/ha) of 98 and a Plant response rating ([6]; 62 g ai/ha) of 98. For the same compound, the Plant response rating ([6]; 125 g ai/ha) was 98, the Plant response rating ([6]; 250 g ai/ha) was 100 and the Plant response rating ([7]; Postemergence, 31 g ai/ha) was 5. For the same compound, the Plant response rating ([7]; Postemergence, 62 g ai/ha) was 15, the Plant response rating ([7]; Postemergence, 125 g ai/ha) was 15 and the Plant response rating ([7]; Postemergence, 250 g ai/ha) was 20. It also gave a Plant response rating ([7]; Preemergence, 31 g ai/ha) of 65, a Plant response rating ([7]; Preemergence, 62 g ai/ha) of 95 and a Plant response rating ([7]; Preemergence, 125 g ai/ha) of 98. For the same compound, the Plant response rating ([7]; Preemergence, 250 g ai/ha) was 98, the Plant response rating ([8]; 31 g ai/ha) was 85 and the Plant response rating ([8]; 62 g ai/ha) was 90. It also gave a Plant response rating ([8]; 125 g ai/ha) of 90, a Plant response rating ([8]; 250 g ai/ha) of 90 and a Plant response rating ([9]; Postemergence, 31 g ai/ha) of 5. The Plant response rating ([9]; Postemergence, 62 g ai/ha) was 10, the Plant response rating ([9]; Postemergence, 125 g ai/ha) was 15 and the Plant response rating ([9]; Postemergence, 250 g ai/ha) was 15. For the same compound, the Plant response rating ([9]; Preemergence, 31 g ai/ha) was 45, the Plant response rating ([9]; Preemergence, 62 g ai/ha) was 80 and the Plant response rating ([9]; Preemergence, 125 g ai/ha) was 100. The Plant response rating ([9]; Preemergence, 250 g ai/ha) was 100, the Plant response rating ([10]; Postemergence, 31 g ai/ha) was 5 and the Plant response rating ([10]; Postemergence, 62 g ai/ha) was 5. For the same compound, the Plant response rating ([10]; Postemergence, 125 g ai/ha) was 5, the Plant response rating ([10]; Postemergence, 250 g ai/ha) was 30 and the Plant response rating ([10]; Preemergence, 31 g ai/ha) was 5. The Plant response rating ([10]; Preemergence, 62 g ai/ha) was 5, the Plant response rating ([10]; Preemergence, 125 g ai/ha) was 5 and the Plant response rating ([10]; Preemergence, 250 g ai/ha) was 30. The Plant response rating ([11]; Postemergence, 31 g ai/ha) was 35, the Plant response rating ([11]; Postemergence, 62 g ai/ha) was 40 and the Plant response rating ([11]; Postemergence, 125 g ai/ha) was 40. It also gave a Plant response rating ([11]; Postemergence, 250 g ai/ha) of 85, a Plant response rating ([11]; Preemergence, 31 g ai/ha) of 0 and a Plant response rating ([12]; Postemergence, 31 g ai/ha) of 5. For the same compound, the Plant response rating ([12]; Postemergence, 62 g ai/ha) was 10, the Plant response rating ([12]; Postemergence, 125 g ai/ha) was 10 and the Plant response rating ([12]; Postemergence, 250 g ai/ha) was 15. The Plant response rating ([12]; Preemergence, 31 g ai/ha) was 98, the Plant response rating ([12]; Preemergence, 62 g ai/ha) was 98 and the Plant response rating ([12]; Preemergence, 125 g ai/ha) was 98. The Plant response rating ([12]; Preemergence, 250 g ai/ha) was 98, the Plant response rating ([13]; Postemergence, 31 g ai/ha) was 5 and the Plant response rating ([13]; Postemergence, 62 g ai/ha) was 10. The Plant response rating ([13]; Postemergence, 125 g ai/ha) was 30, the Plant response rating ([13]; Postemergence, 250 g ai/ha) was 45 and the Plant response rating ([13]; Preemergence, 62 g ai/ha) was 20. For the same compound, the Plant response rating ([13]; Preemergence, 125 g ai/ha) was 75, the Plant response rating ([13]; Preemergence, 250 g ai/ha) was 75 and the Plant response rating ([14]; Postemergence, 31 g ai/ha) was 10. The Plant response rating ([14]; Postemergence, 62 g ai/ha) was 10, the Plant response rating ([14]; Postemergence, 125 g ai/ha) was 40 and the Plant response rating ([14]; Postemergence, 250 g ai/ha) was 98. For the same compound, the Plant response rating ([14]; Preemergence, 31 g ai/ha) was 95, the Plant response rating ([14]; Preemergence, 62 g ai/ha) was 95 and the Plant response rating ([14]; Preemergence, 125 g ai/ha) was 95. It also gave a Plant response rating ([14]; Preemergence, 250 g ai/ha) of 95.
